The values that follow are results of earlier work, collected in US20210275558A1, “METHODS FOR TREATING, PHARMACEUTICAL COMPOSITIONS AND USES THEREOF” (Boehringer Ingelheim International GmbH, priority 2018, published 2021).

SMILES strings stand for the structures.

The conditions of data set [1]: in vivo.
For data set [2] the following is noted: crystalline form.
For data set [3], the system named is patients with type 2 diabetes mellitus and high cardiovascular risk.
Where [4] appears, read: secondary outcomes analyses, patients with type 2 diabetes and established cardiovascular disease.

On to `OC[C@H]1O[C@@H](c2ccc(Cl)c(Cc3ccc(O[C@H]4CCOC4)cc3)c2)[C@H](O)[C@@H](O)[C@@H]1O` [empagliflozin, 1-chloro-4-(β-D-glucopyranos-1-yl)-2-[4-((S)-tetrahydrofuran-3-yloxy)-benzyl]benzene], for which, in data set [1], the “diuretic, arterial stiffness and vascular effects” value was “diuretic effect, reduced arterial stiffness and direct vascular effects”. In addition, in data set [2], the solubility result is “good solubility properties” and the stability result is “physico-chemically stable”. In addition, in data set [3] (in contrast to increases observed with diuretics), the reflex-mediated sympathetic activation entry is “not being associated with clinically relevant reflex-mediated sympathetic activation”. Besides, in data set [3] (in vivo), the “blood pressure and heart rate” value was “blood pressure reductions without clinically relevant changes of the heart rate”. Besides, the “risk of cardiovascular death, hospitalization for heart failure and overall mortality” value in data set [3] (patients with type 2 diabetes mellitus and high cardiovascular risk) was “reduced the risk of cardiovascular death, hospitalization for heart failure and overall mortality”. In data set [3] (setting [4]), the “progression of kidney disease” value was “slowed progression of kidney disease” and the “risk for clinically relevant kidney events (inclusive end-stage kidney disease)” value was “reduced the risk for clinically relevant kidney events”.
